# In patent US20250230193A1, “CYCLIC COMPOUND HAVING SELECTIVE KRAS INHIBITORY EFFECT ON HRAS AND NRAS” (CHUGAI SEIYAKU KABUSHIKI KAISHA, priority 2022, published 2025):
# Legend:
# [1] = target: GDP-bound HRAS wild-type protein (Homo sapiens, UniProt P01112); experiment: Binding to HRAS by surface plasmon resonance (SPR), Single Cycle Kinetics; settings: for HRAS/KRAS (ratio of KD value for HRAS to KD value for KRAS) / HRAS/KRAS (ratio of KD value with respect to HRAS to KD value with respect to KRAS): GDP-bound HRAS wild-type vs GDP-bound KRAS wild-type, SPR; for HRAS/KRAS (ratio of KD value with respect to GDP-bound HRAS wild-type protein to KD value with respect to KRAS): class symbols
# GDP-bound HRAS wild-type protein, sequence (P01112 whole entry): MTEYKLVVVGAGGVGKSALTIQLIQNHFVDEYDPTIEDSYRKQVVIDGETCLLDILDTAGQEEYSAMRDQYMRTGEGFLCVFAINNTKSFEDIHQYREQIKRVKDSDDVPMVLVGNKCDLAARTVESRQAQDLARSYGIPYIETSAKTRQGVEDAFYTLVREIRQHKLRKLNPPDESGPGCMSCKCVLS
# [2] = target: GDP-bound NRAS wild-type protein (Homo sapiens, UniProt P01111); experiment: Binding to NRAS by surface plasmon resonance (SPR), Single Cycle Kinetics; settings: for NRAS/KRAS (ratio of KD value for NRAS to KD value for KRAS) / NRAS/KRAS (ratio of KD value with respect to NRAS to KD value with respect to KRAS): GDP-bound NRAS wild-type vs GDP-bound KRAS wild-type, SPR; for NRAS/KRAS (ratio of KD value with respect to GDP-bound NRAS wild-type protein to KD value with respect to KRAS): class symbols
# GDP-bound NRAS wild-type protein, sequence (P01111 whole entry): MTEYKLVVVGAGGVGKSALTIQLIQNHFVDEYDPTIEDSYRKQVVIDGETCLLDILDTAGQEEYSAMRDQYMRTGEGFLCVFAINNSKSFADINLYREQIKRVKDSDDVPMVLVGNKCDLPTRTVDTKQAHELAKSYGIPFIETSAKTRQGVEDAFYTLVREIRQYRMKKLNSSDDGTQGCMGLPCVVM
structure (smiles),measurement,setting,value
CC[C@H](C)[C@@H]1NC(=O)[C@H](CC)N(C)C(=O)C[C@@H](C(=O)N(C)C)N(C)C(=O)[C@H](C2CCCC2)N(C)C(=O)C2(CCC2)N(C)C(=O)[C@@H]2CCCN2C(=O)[C@H](CCc2cc(F)c(C(F)(F)F)c(F)c2)NC(=O)CN(C)C(=O)[C@H](Cc2ccc(C(F)(F)F)cc2)N2CC/C=C\C[C@@H](C2=O)N(C)C(=O)CN(C)C1=O [PP1780],HRAS/KRAS (ratio of KD value for HRAS to KD value for KRAS),[1]; KD ratio,A (a compound having 10 or more and less than 20 is denoted as A)
same,NRAS/KRAS (ratio of KD value for NRAS to KD value for KRAS),[2]; KD ratio,A (a compound having 10 or more and less than 20 is denoted as A)
CCO[C@@H]1C[C@H]2C(=O)NC3(CC(C)(C)C3)C(=O)N(C)[C@@H](C3CCCC3)C(=O)N(C)[C@H](C(=O)N(C)C)CC(=O)N(C)[C@@H](CC)C(=O)N[C@@H]([C@@H](C)CC)C(=O)N(C)CC(=O)N(C)[C@H]3C/C=C\CCN(C3=O)[C@@H](Cc3ccc(C)cc3)C(=O)N(C)CC(=O)N[C@@H](CCc3ccc(C(F)(F)F)c(OC)c3)C(=O)N2C1 [PP1873],HRAS/KRAS (ratio of KD value for HRAS to KD value for KRAS),[1]; KD ratio,B (a compound having 3 or more and less than 10 is denoted as B)
same,NRAS/KRAS (ratio of KD value for NRAS to KD value for KRAS),[2]; KD ratio,A (a compound having 10 or more and less than 20 is denoted as A)
CCC[C@H]1C(=O)N[C@@H](CC(C)C)C(=O)N(CCOC)CC(=O)N(C)[C@H]2C/C=C\CCN(C2=O)[C@@H](Cc2ccc(C)cc2)C(=O)N(C)CC(=O)N[C@@H](CCc2cc(F)c(C(F)(F)F)c(F)c2)C(=O)N2C[C@H](OCC)C[C@H]2C(=O)NC2(CCC2)C(=O)N(C)[C@@H](C2CCCC2)C(=O)N(C)[C@H](C(=O)N(C)C)CC(=O)N1C [PP2541],HRAS/KRAS (ratio of KD value with respect to GDP-bound HRAS wild-type protein to KD value with respect to KRAS),[1],B (a compound having 3 or more and less than 10 is denoted as B)
same,NRAS/KRAS (ratio of KD value with respect to GDP-bound NRAS wild-type protein to KD value with respect to KRAS),[2],A (a compound having 10 or more and less than 20 is denoted as A)
CCO[C@@H]1C[C@H]2C(=O)NC3(CC(C)(C)C3)C(=O)N(C)[C@@H](C3CCCC3)C(=O)N(C)[C@H](C(=O)N(C)C)CC(=O)N(C)[C@@H](COC)C(=O)N[C@@H]([C@@H](C)CC)C(=O)N(C3CC3)CC(=O)N(C)[C@H]3C/C=C\CCN(C3=O)[C@@H](CC3CCCCC3)C(=O)N(C)CC(=O)N[C@@H](CCc3cc(F)c(C(F)(F)F)c(F)c3)C(=O)N2C1 [PP2562],HRAS/KRAS (ratio of KD value with respect to GDP-bound HRAS wild-type protein to KD value with respect to KRAS),[1],B (a compound having 3 or more and less than 10 is denoted as B)
same,NRAS/KRAS (ratio of KD value with respect to GDP-bound NRAS wild-type protein to KD value with respect to KRAS),[2],B (a compound having 3 or more and less than 10 is denoted as B)
CC[C@H](C)[C@@H]1NC(=O)[C@H](COC)N(C)C(=O)C[C@@H](C(=O)N2CCOCC2)N(C)C(=O)[C@H](C2CCCC2)N(C)C(=O)C2(CCCC2)NC(=O)[C@@H]2C[C@H](O)CN2C(=O)[C@H](CCc2cc(F)c(C(F)(F)F)c(F)c2)NC(=O)CN(C)C(=O)[C@H](Cc2ccc(C(F)(F)F)cc2)N2CCCCC[C@@H](C2=O)N(C)C(=O)CN(C)C1=O [PP0847],HRAS/KRAS (ratio of KD value with respect to HRAS to KD value with respect to KRAS),[1]; KD ratio,B (a compound having 3 or more and less than 10 is denoted as B)
same,NRAS/KRAS (ratio of KD value with respect to NRAS to KD value with respect to KRAS),[2]; KD ratio,B (a compound having 3 or more and less than 10 is denoted as B)
CCO[C@@H]1C[C@H]2C(=O)NC3(CCC3)C(=O)N(C)[C@@H](C3CCCC3)C(=O)N(C)[C@H](C(=O)N(C)CC)CC(=O)N(C)[C@@H](C(C)C)C(=O)N[C@@H]([C@@H](C)CC)C(=O)N(C)CC(=O)N(C)[C@H]3C/C=C\CCN(C3=O)[C@@H](Cc3ccc(C(F)(F)F)cc3)C(=O)N(C)CC(=O)N[C@@H](CCc3cc(F)c(C(F)(F)F)c(F)c3)C(=O)N2C1 [PP1990],HRAS/KRAS (ratio of KD value for HRAS to KD value for KRAS),[1]; KD ratio,A (a compound having 10 or more and less than 20 is denoted as A)
same,NRAS/KRAS (ratio of KD value for NRAS to KD value for KRAS),[2]; KD ratio,A (a compound having 10 or more and less than 20 is denoted as A)
CCCN(C)C(=O)[C@@H]1CC(=O)N(C)[C@@H](COCC)C(=O)N[C@@H]([C@@H](C)CC)C(=O)N(C)CC(=O)N(C)[C@H]2C/C=C\CCN(C2=O)[C@@H](Cc2ccc(C(F)(F)F)cc2)C(=O)N(C)CC(=O)N[C@@H](CCc2cc(F)c(C(F)(F)F)c(F)c2)C(=O)N2C[C@@H](C)C[C@H]2C(=O)NC2(CC(C)(C)C2)C(=O)N(C)[C@@H](C2CCCC2)C(=O)N1C [PP2041],HRAS/KRAS (ratio of KD value with respect to HRAS to KD value with respect to KRAS),[1],A (a compound having 10 or more and less than 20 is denoted as A)
same,NRAS/KRAS (ratio of KD value with respect to NRAS to KD value with respect to KRAS),[2],A (a compound having 10 or more and less than 20 is denoted as A)
